Data taken from patent US5280047A, “2-(4-substituted)phenylmethylene derivatives and methods of use” (G. D. Searle & Co., priority 1993, dated 1994).
pIC50: −log10 of the molar value. Values joined by “and” are separate entries in the source; they are usually repeats but may differ in a detail not shown here. Identical values can stand only once.

What follows are compounds tested against T1, 5-lipoxygenase (Rattus norvegicus, UniProt P12527) (assay: Inhibition of 5-lipoxygenase, in vitro (5-HETE synthesis, RBL-1 100,000 x g supernatant)). Settings: not given.
T1 construct: supernatant fraction of Rat Basophilic Leukemia Cell Homogenate (RBL-1) serves as a 5-lipoxygenase enzyme source; endogenous in cells; host or cells: RBL-1 (rat basophilic leukemia) cells, 100,000 x g supernatant of the homogenate
T1 sequence (P12527 1-673): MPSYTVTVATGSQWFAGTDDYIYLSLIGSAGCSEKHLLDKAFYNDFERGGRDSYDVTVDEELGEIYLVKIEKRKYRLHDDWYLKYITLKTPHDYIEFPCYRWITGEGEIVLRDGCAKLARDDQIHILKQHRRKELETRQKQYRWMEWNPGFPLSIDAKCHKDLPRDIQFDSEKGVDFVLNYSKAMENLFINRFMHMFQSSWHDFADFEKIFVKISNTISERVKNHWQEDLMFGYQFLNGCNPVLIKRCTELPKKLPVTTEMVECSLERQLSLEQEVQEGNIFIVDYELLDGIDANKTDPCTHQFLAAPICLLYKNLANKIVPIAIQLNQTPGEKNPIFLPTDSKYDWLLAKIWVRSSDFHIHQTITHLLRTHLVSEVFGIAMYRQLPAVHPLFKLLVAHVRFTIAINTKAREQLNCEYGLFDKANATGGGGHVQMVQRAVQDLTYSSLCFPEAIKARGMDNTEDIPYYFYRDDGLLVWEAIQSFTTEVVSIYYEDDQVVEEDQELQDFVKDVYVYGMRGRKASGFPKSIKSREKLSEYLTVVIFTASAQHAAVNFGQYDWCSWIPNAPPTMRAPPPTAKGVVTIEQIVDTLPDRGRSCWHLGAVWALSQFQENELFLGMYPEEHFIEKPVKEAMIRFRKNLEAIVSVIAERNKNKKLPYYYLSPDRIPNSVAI
Assay type: biochemical
Method: The compounds of the invention are evaluated with respect to 5-lipoxygenaseinhibition according to the following assay procedure.
Inhibition of 5-lipoxygenase, in vitro : anti-inflammatory, anti-allergy activities.
The 100,000 x g supernatant fraction of Rat Basophilic Leukemia Cell Homogenate (RBL-1) serves as a 5-lipoxygenase enzyme source. The enzyme is incubated with [1-^14 C)-arachidonic acid and Ca++ in the presence and absence of test compound. The product of 5-lipoxygenase, 5-hydroxyeicosatetraenoic acid (5-HETE), is separated by thin-layer chromatography and measured by radioactivity.
When more than one result is listed, this indicates the results from additional tests.

In the case of CCCCCCCCc1ccc(/C=C/C(C)=O)cc1 [Example 8, 4-(4-octylphenyl)-3E-buten-2-one], the pIC50 was 4.00.

Same assay, conditions: Rat Basophilic Leukemia Cell Homogenate (RBL-1) supernatant; [1-14C]-arachidonic acid and Ca++; several values = results from additional tests; read-out: 5-Lipoxygenase Inhibition IC50

With CCCCCCc1ccc(/C=C(\C(C)=O)C(=O)OCC)cc1 [Example 1A, Ethyl 2E-[(4-hexylphenyl)methylene]-3-oxobutanoate] the pIC50 was 5.52 and 5.10 and 4.82.
CCCCCCc1ccc(/C=C(/C(C)=O)C(=O)OCC)cc1 [Example 1B, Ethyl 2Z-[(4-hexylphenyl)methylene]-3-oxobutanoate] was tested, and the pIC50 was 5.12 and 5.23.
For CCCCCCCCc1ccc(/C=C(\C(C)=O)C(=O)OCC)cc1 [Example 3C, Ethyl 2E-[(4-octylphenyl)methylene]-3-oxobutanoate], the pIC50 was 5.23 and 4.85.

In order of falling pIC50:
1. CCCCCCCCc1ccc(C=C(C(C)=O)C(C)=O)cc1 [Example 5, 3-[(4-octylphenyl)methylene]-2,4-pentanedione]  5.36
2. CCCCCCc1ccc(/C=C(/C(C)=O)C(=O)c2ccccc2)cc1 [Example 2, 2Z-[(4-hexylphenyl)methylene]-1-phenyl-1,3-butanedione]  4.74
3. CCOC(=O)/C(=C/c1ccc(Cl)cc1)C(C)=O [Example 6E, Ethyl 2E-[(4-chlorophenyl)methylene]-3-oxobutanoate]  4.33
4. CCOC(=O)/C(=C\c1ccc(Cl)cc1)C(C)=O [Example 6F, Ethyl 2Z-[(4-chlorophenyl)methylene]-3-oxobutanoate]  4.25
5. CCOC(=O)/C(=C/c1ccc([N+](=O)[O-])cc1)C(C)=O [Example 7G, Ethyl 2E-[(4-nitrophenyl)methylene]-3-oxobutanoate]  4.13
6. CCOC(=O)/C(=C\c1ccc([N+](=O)[O-])cc1)C(C)=O [Example 7H, Ethyl 2Z-[(4-nitrophenyl)methylene]-3-oxobutanoate]  4.11
7. CCCCCCc1ccc(/C=C/C(C)=O)cc1 [Example 9, 4-(4-hexylphenyl)-3E-buten-2-one]  4.00
8. CCCCCCc1ccc(C=C(C(=O)OCC)C(=O)OCC)cc1 [Example 10, Diethyl 2-[(4-hexylphenyl)methylene]propanedioate]  4.00

Same assay, conditions: at 100 μM; RBL-1 supernatant, 5-HETE synthesis

In order of rising inhibition at 100 µM:
1. CCCCCCCCc1ccc(/C=C(/C(C)=O)C(=O)OCC)cc1 [Example 3D, Ethyl 2Z-[(4-octylphenyl)methylene]-3-oxobutanoate]  42%
2. CCCCCCCCc1ccc(C=C(C(=O)OCC)C(=O)OCC)cc1 [Example 4, Diethyl 2-[(4-octylphenyl)methylene]propanedioate]  45.6%
